Patent US20070128217A1 (priority 2003, published 2007)

Tests used:
[1] = system: control sera (pooled serum of ten healthy LUMC hospital workers; commercial negative donor pooled serum from the Dutch bloodbank); format: binding, human; design: Binding of Control serum LUMC to linear peptides / Binding of Control serum Blood-bank to linear peptides / Binding of Control serum LUMC to looped peptides / Binding of Control Serum Blood-Bank to Looped peptides / Binding of Control serum LUMC to linear peptides of the protein M of SARS-CoV Urbani / Binding of Control serum Blood-bank to linear peptides of the protein M of SARS-CoV Urbani / Binding of Control serum LUMC to looped peptides of the protein M of SARS-CoV Urbani / Binding of Control Serum Blood-Bank to Looped peptides of the protein M of SARS-CoV Urbani: unit not given here
[2] = system: recombinant human anti-SARS-CoV antibody 03-018; format: binding; design: Binding of antibody 03-018 to linear peptides of the N protein of SARS-CoV Urbani / Binding of antibody 03-018 to looped/cyclic peptides of the N protein of SARS-CoV Urbani: unit not given here
[3] = system: rabbit serum obtained by immunizing a rabbit with the SARS-CoV strain Frankfurt 1; format: binding; design: Binding of a rabbit serum to linear peptides / Binding of a rabbit serum to looped peptides / Rabbit serum linear peptides / Rabbit serum looped peptides / Binding of a rabbit serum to linear peptides of protein N of SARS-CoV Urbani (Rabbit serum linear peptides) / Binding of a rabbit serum to looped/cyclic peptides of protein N of SARS-CoV Urbani (Rabbit serum looped peptides): unit not given here
[4] = system: antibodies in sera from SARS patients (sera 1a, 1b, 2, 6, 37, 62, London, SARS-yellow, SARS-green); format: binding, human; design: Binding of serum 6 to linear peptides of protein X1 of SARS-CoV Urbani / Binding of serum 37 to linear peptides of protein X1 of SARS-CoV Urbani / Binding of serum 6 to looped/cyclic peptide (PEPSCAN-ELISA) / Binding of serum 37 to looped/cyclic peptide (PEPSCAN-ELISA) / Binding of serum 37 to looped/cyclic peptides of protein X1 of SARS-CoV Urbani / Binding of serum 6 to linear peptides of protein X2 / Binding of serum 37 to linear peptides of protein X2 / Binding of serum 37 to looped/cyclic peptides of protein X2 of SARS-CoV Urbani / Binding of serum 6 to linear peptides of protein M of SARS-CoV Urbani / Binding of serum 37 to linear peptides of protein M of SARS-CoV Urbani / Binding of serum 6 to looped/cyclic peptides of protein M of SARS-CoV Urbani / Binding of serum 37 to looped/cyclic peptides of protein M of SARS-CoV Urbani / Binding of serum 6 to linear peptides of protein X3 of SARS-CoV Urbani / Binding of serum 37 to linear peptides of protein X3 of SARS-CoV Urbani / Binding of serum 37 to looped/cyclic peptides of protein X3 of SARS-CoV Urbani / Binding of serum 6 to linear peptides of protein X4 of SARS-CoV Urbani / Binding of serum 37 to linear peptides of protein X4 of SARS-CoV Urbani / Binding of serum 37 to looped/cyclic peptides of protein X4 of SARS-CoV Urbani / Binding of serum 6 to linear peptides of protein X5 of SARS-CoV Urbani / Binding of serum 37 to linear peptides of protein X5 of SARS-CoV Urbani / Binding of serum 37 to looped/cyclic peptides of protein X5 of SARS-CoV Urbani / Binding of serum 6 to linear peptides of protein N of SARS-CoV Urbani / Binding of serum 37 to linear peptides of protein N of SARS-CoV Urbani / Binding of serum 6 to linear peptide (PEPSCAN-ELISA) / Binding of serum 1a to looped/cyclic peptides of protein N of SARS-CoV Urbani / Binding of serum 1b to looped/cyclic peptides of protein N of SARS-CoV Urbani / Binding of serum 2 to looped/cyclic peptides of protein N of SARS-CoV Urbani / Binding of serum 6 to looped/cyclic peptides of protein N of SARS-CoV Urbani / Binding of serum 37 to looped/cyclic peptides of protein N of SARS-CoV Urbani / Binding of serum 62 to looped/cyclic peptides of protein N of SARS-CoV Urbani / Binding of serum London to looped/cyclic peptides of protein N of SARS-CoV Urbani / Binding of serum SARS-green to looped/cyclic peptides of protein N of SARS-CoV Urbani: unit not given here

Sequence	Binding of Control Serum Blood-Bank to Looped peptides [1]	Binding of Control serum Blood-bank to linear peptides [1]	Binding of Control serum LUMC to linear peptides [1]	Binding of Control serum LUMC to looped peptides [1]	Binding of antibody 03-018 to linear peptides of the N protein of SARS-CoV Urbani [2]	Binding of antibody 03-018 to looped/cyclic peptides of the N protein of SARS-CoV Urbani [2]	Binding of a rabbit serum to linear peptides of protein N of SARS-CoV Urbani (Rabbit serum linear peptides) [3]	Binding of a rabbit serum to looped/cyclic peptides of protein N of SARS-CoV Urbani (Rabbit serum looped peptides) [3]	Binding of serum 1a to linear peptides of protein N of SARS-CoV Urbani [4]	Binding of serum 1a to looped/cyclic peptides of protein N of SARS-CoV Urbani [4]	Binding of serum 1b to linear peptides of protein N of SARS-CoV Urbani [4]	Binding of serum 1b to looped/cyclic peptides of protein N of SARS-CoV Urbani [4]	Binding of serum 2 to linear peptides of protein N of SARS-CoV Urbani [4]	Binding of serum 2 to looped/cyclic peptides of protein N of SARS-CoV Urbani [4]	Binding of serum 6 to looped/cyclic peptides of protein N of SARS-CoV Urbani [4]	Binding of serum 37 to looped/cyclic peptides of protein N of SARS-CoV Urbani [4]	Binding of serum 62 to looped/cyclic peptides of protein N of SARS-CoV Urbani [4]	Binding of serum London to looped/cyclic peptides of protein N of SARS-CoV Urbani [4]	Binding of serum SARS-green to looped/cyclic peptides of protein N of SARS-CoV Urbani [4]	Binding of serum SARS-yellow to looped/cyclic peptides of protein N of SARS-CoV Urbani [4]	also measured
VWVATEGALNTPKDH	0.8	0.6	0.8	0.6	0.1	0.3	0.1	0.4	0.2	0.3	0.1	0.3	0.2	0.6	0.4	0.6	0.6	1.2	0.7	0.6	Binding of serum 6 to linear peptides of protein N of SARS-CoV Urbani [4]: 0.2; Binding of serum 37 to linear peptides of protein N of SARS-CoV Urbani [4]: 0.8; Binding of serum 62 to linear peptides of protein N of SARS-CoV Urbani [4]: 0.7; Binding of serum London to linear peptides of protein N of SARS-CoV Urbani [4]: 0.6; Binding of serum SARS-green to linear peptides of protein N of SARS-CoV Urbani [4]: 0.5; Binding of serum SARS-yellow to linear peptides of protein N of SARS-CoV Urbani [4]: 0.6
QAFGRRGPEQTQGNF	0.4	0.9	0.7	0.4	0.1	0.2	0.1	0.3	–	0.3	–	0.2	–	0.3	0.2	0.3	0.3	0.3	0.2	0.2	Binding of serum 1a to linear peptide (PEPSCAN-ELISA) [4]: 0.3; Binding of serum 1b to linear peptide (PEPSCAN-ELISA) [4]: 0.1; Binding of serum 2 to linear peptide (PEPSCAN-ELISA) [4]: 0.2; Binding of serum 6 to linear peptide (PEPSCAN-ELISA) [4]: 0.2; Binding of serum 37 to linear peptide (PEPSCAN-ELISA) [4]: 0.6; Binding of serum 62 to linear peptide (PEPSCAN-ELISA) [4]: 0.8; Binding of serum London to linear peptide (PEPSCAN-ELISA) [4]: 0.7; Binding of serum SARS-green to linear peptide (PEPSCAN-ELISA) [4]: 0.2; Binding of serum SARS-yellow to linear peptide (PEPSCAN-ELISA) [4]: 0.4
VPINTNSGPDDQIGY	0.8	0.7	0.8	0.7	0.1	0.2	0.1	0.3	0.3	0.5	0.2	0.4	0.2	0.4	0.2	0.9	0.7	0.5	1.1	0.7	Binding of serum 6 to linear peptides of protein N of SARS-CoV Urbani [4]: 0.2; Binding of serum 37 to linear peptides of protein N of SARS-CoV Urbani [4]: 0.8; Binding of serum 62 to linear peptides of protein N of SARS-CoV Urbani [4]: 0.7; Binding of serum London to linear peptides of protein N of SARS-CoV Urbani [4]: 0.4; Binding of serum SARS-green to linear peptides of protein N of SARS-CoV Urbani [4]: 0.4; Binding of serum SARS-yellow to linear peptides of protein N of SARS-CoV Urbani [4]: 0.5
EGALNTPKDHIGTRN	0.7	0.7	0.6	0.5	0.1	0.3	0.1	0.0	0.2	0.3	0.1	0.2	0.2	0.5	0.3	0.6	0.3	0.5	0.4	0.2	Binding of serum 6 to linear peptides of protein N of SARS-CoV Urbani [4]: 0.2; Binding of serum 37 to linear peptides of protein N of SARS-CoV Urbani [4]: 0.6; Binding of serum 62 to linear peptides of protein N of SARS-CoV Urbani [4]: 0.6; Binding of serum London to linear peptides of protein N of SARS-CoV Urbani [4]: 0.6; Binding of serum SARS-green to linear peptides of protein N of SARS-CoV Urbani [4]: 0.1; Binding of serum SARS-yellow to linear peptides of protein N of SARS-CoV Urbani [4]: 0.5
